≈ marks a conversion by molar mass, not a printed value.
Key:
[1] = tested on: Fungi stains; assay: Minimum fungicidal concentration (MFC), positive control, strain not stated; format: cell-based
Description: Minimum fungicidal concentration (MFC) was determined according to Zinsou et al., “Development of new dermatological formulations for the treatment of cutaneous candidiasis”, Scientific African (2020), 8:e00342. Different final concentrations (0.1 to 1 mg/mL) of the bark essential oils were dissolved in DEMO and added to liquid Sabouraud dextrose broth. From the above fungal stain suspension, 1 mL was added to each essential oil tube. The tubes were incubated at room temperature for three days. Negative and positive controls were made through the addition of an equivalent amount of DMSO and Ketoconazole, respectively. MFC was calculated through the determination of the lowest concentration of the essential oil, which could inhibit the growth of the fungus. Every concentration was repeated 5 times in three different experiments, and the mean and SD of inhibition zones were calculated for each fungal strain. The MIC was determined as the lowest concentration of essential oil that inhibited fungal growth after 48 h.

[2] = tested on: C. albicans; assay: In vivo topical fungal infection of burn wounds in Wistar rats; conditions: for percentage of fungicidal activity (wound fungal load): FIG. 5
Description: The development of in vivo topical fungal infection was determined according to Zinsou, A. et al., “Development of new dermatological formulations for the treatment of cutaneous candidiasis”, Scientific African (2020):8:e00342, and modified Ray and Wuepper, “Experimental Cutaneous Candidiasis in Rodents: II. Role of the Stratum Corneum Barrier and Serum Complement as a Mediator of a Protective Inflammatory Response”, Archives of Dermatology (1978), Vol. 114(4): 539-43. The experimental protocol was permitted by the Institutional Animal Care and Use Committee of King Faisal University (KFU-REC-2023-JAN-EA000691). All the experiments were executed in harmony with the relevant procedures and regulations of the Ethical Conduct for the Use of Animals in Research at King Faisal University. Wistar rats weighing (220±30 g) were used for the whole experiment. The animals' backs were shaved after anesthesia, and sterilized with 70% ethyl alcohol in water and left to dry. The injury was induced on the shaven back of each rat using a hot copper metal rod. The injury was swabbed with 0.5 mL broth containing […] Colony-Forming Units (CFU) of C. albicans. The essential oil topical preparations were applied once daily, starting from day 3, directly on the infected wound until the wound was completely healed (nearly 20 days). No antibiotic or antifungal preparations were administered to any of the animal groups, and the animals were monitored daily for any wound contamination. The animals' wounds were covered by sterile wound plaster, which is changed every day. […]
The animals' infected wounds (lesions) were monitored according to Masoko, et al., “In vivo antifungal effect of Combretum and Terminalia species extracts on cutaneous wound healing in immunosuppressed rats”, Pharm Biol (2010): 48:6:621-32, and Sullivan, et al., “Assessment of wound bioburden development in a rat acute wound model: Quantitative swab versus tissue biopsy”, Wounds (2004): 16: 115-123, using the following parameters: (1) Presence and type of exudate, erythema, swelling, ulceration, and crust formation: The scoring of the lesions regarding the exudate was measured using the following criteria: 0: No exudate, 1: Exudate just visible, 2: Exudate easily visible, 3: Substantial quantity of exudate, 4: Large quantity of exudate; (2) Wound contraction percentage: The lesion diameters were determined in millimeters (mm) vertically and horizontally. The lesion size percentage was calculated using the below equation: Wound contraction percentage=((Wound area day 0-Wound area day X)/Wound area day 0)×100, where X represents the number of days;
(3) Epithelialization time: The number of days needed for the wound Escher to fade away, leaving no visible wound, was used to determine the epithelialization period. (4) Evaluation of wound fungal load was determined according to Sullivan et al., supra: At the 3rd, 10th, and 15 days, each lesion was gently swabbed by a sterile swab 3 times anticlockwise with mild pressure. […] The plates were incubated for 48 hours at 37° C., and the number of yeasts on each plate was manually counted. […]

## CC(=O)N1CCN(c2ccc(OCC3COC(Cn4ccnc4)(c4ccc(Cl)cc4Cl)O3)cc2)CC1 (stereo not drawn) [Ketoconazole]
[1]
  MFC: 0.037 µg/mL (≈ 0.0696 µM)
[2]; AUC of exudate score, FIG. 2B, topical once daily from day 3
  reduction of wound exudate related to the non-treatment lesions: 58%
[2]; FIG. 4
  reduction of epithelization time related to the untreated infected wound: 42%
[2]; by day 21, FIG. 3
  wound contraction percentage: 100%
[2]; day 5, related to the untreated-infected wound
  percentage of fungicidal activity (wound fungal load): 45.85%
[2]; day 15, related to the untreated-infected wound
  percentage of fungicidal activity (wound fungal load): 98.58%

From US11883450B1, “Extract of Agathis robusta as antifungal agent” (KING FAISAL UNIVERSITY, priority 2023, dated 2024)
